# According to patent US10501449B2 (priority 2018, dated 2019):
# pIC50: −log10 of the molar value.
# Molecular target: hROMK (human Kir1.1) (Homo sapiens (Human), UniProt P48048)
# Experiment: cell-based
# Details: CHO T-Rex hROMK stable cell line; thallium flux; 10-point concentration response curve; read-out: Human ROMK Th Flux IC50
# hROMK (human Kir1.1), sequence (P48048 whole entry): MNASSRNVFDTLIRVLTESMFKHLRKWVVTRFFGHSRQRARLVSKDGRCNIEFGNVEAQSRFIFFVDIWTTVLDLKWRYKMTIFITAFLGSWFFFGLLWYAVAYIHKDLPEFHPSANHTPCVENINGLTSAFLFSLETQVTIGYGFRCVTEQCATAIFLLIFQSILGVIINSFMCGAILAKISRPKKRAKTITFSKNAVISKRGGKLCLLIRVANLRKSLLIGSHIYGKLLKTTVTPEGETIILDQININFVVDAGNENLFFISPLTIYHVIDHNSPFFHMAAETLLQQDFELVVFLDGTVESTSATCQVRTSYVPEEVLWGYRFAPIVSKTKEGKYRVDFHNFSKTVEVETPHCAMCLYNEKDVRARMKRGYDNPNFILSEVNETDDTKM
smiles,measurement,value
"Cc1cc(-n2ncc(CN3C[C@H](C)N(O)[C@H](c4ccc5c(c4C)COC5=O)C3)n2)ncc1C#N [Example 246-I, 6-(4-(((3S,5R)-4-hydroxy-3-methyl-5-(4-methyl-1-oxo-1,3-dihydroisobenzofuran-5-yl)piperazin-1-yl)methyl)-2H-1,2,3-triazol-2-yl)-4-methylnicotinonitrile]",pIC50,6.06
"CNC(=O)c1nn(-c2cc(OC)c(C#N)cn2)cc1CN1CCN[C@H](c2ccc3c(c2C)COC3=O)C1 [Example 260-I, (R)-1-(5-cyano-4-methoxypyridin-2-yl)-N-methyl-4-((3-(4-methyl-1-oxo-1,3-dihydroisobenzofuran-5-yl)piperazin-1-yl)methyl)-1H-pyraozl-3-carboxamide]",pIC50,6.37
"Cc1cncc(-n2cc(CN3CCO[C@H](c4ccc5c(c4C)COC5=O)C3)cn2)n1 [Example 41-I, (R)-4-methyl-5-(4-((1-(6-methylpyrazin-2-yl)-1H-pyrazol-4-yl)methyl)morpholin-2-yl) isobenzofuran-1(3H)-one]",pIC50,6.01
"Cc1c([C@@H]2CN(Cc3cnn(-c4ccnc5c4ccn5C)c3)CCO2)ccc2c1COC2=O [Example 177-I, (R)-4-methyl-5-(4-((1-(1-methyl-1H-pyrrolo[2,3-b]pyridin-4-yl)-1H-pyrazol-4-yl)methyl)morpholin-2-yl)isobenzofuran-1(3H)-one]",pIC50,6.30
"COc1cc(-n2cnc(CN3CC[C@@H](O)[C@H](c4ccc5c(c4C)COC5=O)C3)c2)ccc1C#N [Example 162-I, 4-(4-(((3R,4R)-4-hydroxy-3-(4-methyl-1-oxo-1,3-dihydroisobenzofuran-5-yl)piperidin-1-yl)methyl)-1H-imidazol-1-yl)-2-methoxybenzonitrile]",pIC50,6.59
"Cc1c([C@@H]2CN(Cc3cnn(-c4ccsc4)c3)CCO2)ccc2c1COC2=O [Example 38-I, (R)-4-methyl-5-(4-((1-(thiophen-3-yl)-1H-pyrazol-4-yl)methyl)morpholin-2-yl)isobenzo-furan-1(3H)-one]",pIC50,5.47
"Cc1cc(-n2cc(CN3CCN[C@H](c4ccc5c(c4C)COC5=O)C3)nn2)nc(C)c1C#N [Example 186-I, (R)-2,4-dimethyl-6-(4-((3-(4-methyl-1-oxo-1,3-dihydroisobenzofuran-5-yl)piperazin-1-yl)methyl)-1H-1,2,3-triazol-1-yl)nicotinonitrile]",pIC50,7.74
"Cc1c([C@@H]2CN(Cc3cnc(-n4c(C)nnc4C)nc3)CCN2)ccc2c1COC2=O [Example 201-I, (R)-5-(4-((2-(3,5-dimethyl-4H-1,2,4-triazol-4-yl)pyrimidn-5-yl)methyl)piperazin-2-yl)-4-methylisobenzofuran-1(3H)-one]",pIC50,6.72
"Cc1ccc(-n2cnc(CN3C[C@@H](c4ccc5c(c4C)COC5=O)N[C@@H](C)C3)c2)cn1 [Example 180-I, 4-methyl-5-((2R,6S)-6-methyl-4-((1-(6-methylpyridin-3-yl)-1H-imidazol-4-yl)methyl)piperazin-2-yl)isobenzofuran-1(3H)-one]",pIC50,7.11
"Cc1cc(-n2cc(CN3CCO[C@@H](c4ccc5c(c4C)COC5=O)C3)cn2)ncc1C#N [Example 1-II, (S)-4-methyl-6-(4-((2-(4-methyl-1-oxo-1,3-dihydroisobenzofuran-5-yl)morpholino)methyl)-1H-pyrazol-1-yl) nicotinonitrile]",pIC50,6.10
"Cc1ccc(-n2cnc(CN3C[C@@H](c4ccc5c(c4C)COC5=O)N[C@@H](C)C3)c2)cc1 [Example 178-I, 4-methyl-5-((2R,6S)-6-methyl-4-((1-(p-tolyl)-1H-imidazol-4-yl)methyl)piperazin-2-yl)isobenzofuran-1(3h)-one]",pIC50,6.66
"Cc1cn(-c2ccc(CN3CC(=O)N[C@H](c4ccc5c(c4C)COC5=O)C3)cn2)cn1 [Example 76-I, (R)-6-(4-methyl-1-oxo-1,3-dihydroisobenzo-furan-5-yl)-4-((6-(4-methyl-1H-imidazol-1-yl)pyridin-3-yl)methyl) piperazin-2-one]",pIC50,6.52
"Cc1cc(-n2ccc(CN3C[C@@H](c4ccc5c(c4C)COC5=O)N[C@@H](C)C3)cc2=O)ncc1C#N [Example 247-I, 4′-methyl-4-(((3S,5R)-3-methyl-5-(4-methyl-1-oxo-1,3-dihydroisobenzofuran-5-yl)piperazin-1-yl)methyl)-2-oxo-2H-[1,2′-bipyridine]-5′-carbonitrile]",pIC50,6.48
"Cc1c([C@@H]2CN(Cc3ccc(-c4ccc(=O)n(C)n4)nc3)C[C@H](C)N2)ccc2c1COC2=O [Example 120-I, 2-methyl-6-(5-(((3S,5R)-3-methyl-5-(4-methyl-1-oxo-1,3-dihydroisobenzofuran-5-yl)piperazin-1-yl)methyl)pyridin-2-yl)pyridazin-3(2H)-one]",pIC50,6.80
"Cc1cc(-n2cc(CN3CCC(F)(F)C(c4ccc5c(c4C)COC5=O)C3)cn2)ncc1C#N (stereo not drawn) [Example 5, 6-(4-((4,4-difluoro-3-(4-methyl-1-oxo-1,3-dihydroisobenzofuran-5-yl)piperidin-1-yl)methyl)-1H-pyrazol-1-yl)-4-methylnicotinonitrile]",pIC50,6.57
"Cc1cc(-c2nnc(CN3CCN[C@H](c4ccc5c(c4C)COC5=O)C3)o2)ncc1C#N [Example 13-I, (R)-4-methyl-6-(5-((3-(4-methyl-1-oxo-1,3-dihydroisobenzofuran-5-yl)piperazin-1-yl)methyl)-1,3,4-oxadiazol-2-yl)nicotinonitrile]",pIC50,6.96
"Cc1cc(-n2cc(CN3C[C@@H](c4ccc5c(c4C)COC5=O)N[C@@H](C)C3)oc2=O)ncc1C#N [Example 117-I, 4-methyl-6-(5-(((3S,5R)-3-methyl-5-(4-methyl-1-oxo-1,3-dihydroisobenzofuran-5-yl)piperazin-1-yl)methyl)-2-oxooxazol-3(2H)-yl)nicotinonitrile]",pIC50,7.47
"CC(=O)NC1CCN(Cc2cnn(-c3cc(C)c(C#N)cn3)c2)CC1c1ccc2c(c1C)COC2=O (single isomer, unassigned) [Example 248-I, N-(1-((1-(5-cyano-4-methylpyridin-2-yl)-1H-pyrazol-4-yl)methyl)-3-(4-methyl-1-oxo-1,3-dihydroisobenzofuran-5-yl)piperidin-4-yl)acetamide]",pIC50,5.82
"Cc1cc(-n2nnc(CN3C[C@@H](c4ccc5c(c4C)COC5=O)N[C@@H](C)C3)c2C)ncc1C#N [Example 176-I, 4-methyl-6-(5-methyl-4-(((3S,5R)-3-methyl-5-(4-methyl-1-oxo-1,3-dihydroisobenzofuran-5-yl)piperazin-1-yl)methyl)-1H-1,2,3-triazol-1-yl)nicotinonitrile]",pIC50,6.92
"COc1ncc(-n2cc(CN3C[C@@H](c4ccc5c(c4C)COC5=O)N[C@@H](C)C3)cn2)cn1 [Example 208-I, 5-((2R,6S)-4-((1-(2-methoxypyrimidin-5-yl)-1H-pyrazol-4-yl)methyl)-6-methylpiperazin-2-yl)-4-methylisobenzofuran-1(3H)-one]",pIC50,6.72
"COc1cc(-n2cc(CN3CCN[C@H](c4ccc5c(c4C)COC5=O)C3)c(C(N)=O)n2)ncc1C#N [Example 262-I, (R)-1-(5-cyano-4-methoxypyridin-2-yl)-4-((3-(4-methyl-1-oxo-1,3-dihydroisobenzofuran-5-yl)piperazin-1-yl)methyl)-1H-pyrazole-3-carboxamide]",pIC50,6.92
"Cc1c([C@@H]2CN(Cc3cn(-c4ccc5oc(=O)n(C)c5c4)cn3)CCO2)ccc2c1COC2=O [Example 29-I, (R)-3-methyl-5-(4-((2-(4-methyl-1-oxo-1,3-dihydroisobenzofuran-5-yl)morpholino)methyl)-1H-imidazol-1-yl) benzo[d]oxazol-2(3H)-one]",pIC50,6.92
"COc1cc(-n2cc(CN3CC(c4ccc5c(c4C)COC5=O)NC(C(C)O)C3)cn2)ncc1C#N (single isomer, unassigned) [Example 204-I, 6-(4-((3-(1-hydroxyethyl)-5-(4-methyl-1-oxo-1,3-dihydroisobenzofuran-5-yl)piperazin-1-yl)methyl)-1H-pyrazol-1-yl)-4-methoxynicotinonitrile]",pIC50,6.66
"Cc1cnccc1-n1cnc(CN2C[C@@H](c3ccc4c(c3C)COC4=O)N[C@@H](C)C2)c1 [Example 179-I, 4-methyl-5-((2R,6S)-6-methyl-4-((1-(3-methylpyridin-4-yl)-1H-imidazol-4-yl)methyl)piperazin-2-yl)isobenzofuran-1(3H)-one]",pIC50,6.44
"Cc1cc(N2CCCS2(=O)=O)cc(-n2cc(CN3C[C@@H](c4ccc5c(c4C)COC5=O)N[C@@H](C)C3)cn2)n1 [Example 253-I, 5-((2R,6S)-4-((1-(4-(1,1-dioxidoisothiazolidin-2-yl)-6-methylpyridin-2-yl)-1H-pyrazol-4-yl)methyl)-6-methylpiperazin-2-yl)-4-methylisobenzofuran-1(3H)-one]",pIC50,6.40
"Cc1ncn(-c2ccc(CN3CC(=O)N[C@H](c4ccc5c(c4C)COC5=O)C3)cn2)n1 [Example 75-I, (R)-6-(4-methyl-1-oxo-1,3-dihydroisobenzo-furan-5-yl)-4-((6-(3-methyl-1H-1,2,4-triazol-1-yl)pyridin-3-yl)methyl) piperazin-2-one]",pIC50,6.17
"Cc1c([C@@H]2CN(Cc3cnc(-c4ccc5oc(=O)n(C)c5c4)s3)CCO2)ccc2c1COC2=O [Example 19-I, (R)-3-methyl-5-(5-((2-(4-methyl-1-oxo-1,3-dihydroisobenzofuran-5-yl)morpholino)methyl)thiazol-2-yl)benzo[d]oxazol-2(3H)-one]",pIC50,6.74
"Cc1c([C@@H]2CN(Cc3cnn(-c4cncc(C#N)c4)c3)CCO2)ccc2c1COC2=O [Example 42-I, (R)-5-(4-((2-(4-methyl-1-oxo-1,3-dihydroiso-benzofuran-5-yl)morpholino)methyl)-1H-pyrazol-1-yl)nicotinonitrile]",pIC50,6.31
"Cc1c([C@@H]2CN(Cc3nnc(-c4ccc(C#N)cn4)o3)CCN2)ccc2c1COC2=O [Example 62-I, (R)-6-(5-((3-(4-methyl-1-oxo-1,3-dihydroiso-benzofuran-5-yl)piper-azin-1-yl)methyl)-1,3,4-oxadiazol-2-yl) nicotinonitrile]",pIC50,6.77
"Cc1cc(-n2cc(C(O)CN3CCO[C@H](c4ccc5c(c4C)COC5=O)C3)cn2)ncc1C#N (single isomer, unassigned) [Example 18-I]",pIC50,6.06
